What all share (assay type): cell-based
The subject of one experiment is NIH3T3/IGF-1R cells. Nature of the experiment: IGF-I Receptor Growth Assay, 3T3 IGF-1R cells. The following applies: Mus musculus, 0.5% FBS, 10 nM IGF-1, read-out: Cell Growth Assays, 3T3 IGF-1R 0.5% FBS. The procedure:
Assay 2: IGF-I Receptor Growth Assay
Materials And Methods. The following materials were used to conduct the IGF-I receptor growth assay:
(§1) a. The NIH3T3/IGF-1R (10% FBS/2 mM glutamine/DMEM) and NIH3T3 c7 (10% calf serum/2 mM glutamine/DMEM) cell lines were used wherein the NIH3T3 cells (and cells derived from them) were handled such that they were not allowed to become confluent, thus decreasing the likelihood of spontaneous transformation.
Using the above described materials, the following steps were performed under aseptic conditions until fixing the cells for the SRB assay:
(§2) Day 0: Cell Plating--Trypsinize and count NIH3T3/IGF-1R and NIH3T3 c7 cells. Dilute in growth media to 2000 cells/200 μl and seed flat bottom 96-well plates with 200 μl/well, one plate for two compounds for each cell line.
Day 1: Compound Preparation--Add DMSO to each compound to make 100 mM stock solutions.
NIH3T31IGF-1R cells--For each 96-well plate, make 15 ml of 10 nM IGF-1/0.5% FBS/2 mM glutamine/DMEM (30 μl of 5 μM IGF-1/15 ml).
Add 3 μl of 100 mM stock of each compound to a tube so 200 μM final. Shake or vortex until it goes into solution. If it is necessary to add additional medium, note the final concentration.
Do 2-fold dilutions (130 μl) from columns 12 to 3 on each plate (column 2 will be for the untreated control), mixing thoroughly. […]

The test system of the next experiment is NIH3T3 c7 cells. In words: Cell growth assay, 3T3 control cells (beside 3T3 IGF-1R). The following applies: Mus musculus, 10% FBS, column beside 3T3 IGF-1R, read-out: Cell Growth Assays, 3T3 10% FBS. The procedure:
as §1, §2
Day 4: Refeed--Repeat steps above, adding exactly the same IGF-1 and compound concentration to each well as before.
Using wells in column 2 (treated with IGF-1 but not compound) as 100%, calculate percent of control for each concentration of compound.
Use a curve fit method to graph percent of control vs. log(molar concentration) and determine the IC50.

Experiment [1] has as its system HER2C7 cells (NIH3T3 engineered to express HER2). In words: 3T3/HER2 Cell Growth Assay, 3T3 HER-2 cells. As to conditions: Mus musculus, NIH3T3, 96 h; 2% FBS; 4 days; read-out: Cell Growth Assays, 3T3 HER-2 2% FBS. The procedure: (§3) The NIH3T3 growth assay, using cell lines capable of expressing HER2, was carried out as follows:
(§4) m. NIH3T3C7 cells in 10% CS+2 mM glutamine DMEM HER2C7 cells in 2% FBS+2 mM glutamine DMEM
(§5) 1. HER2C7 (engineered to express HER2) and NIH3T3C7 (as the control) cells are used for this assay. NIH3T3C7 cells are seeded at 2500 cells/well, […] in 10% CS+2 mM glutamine DMEM, in a 96 well plate; HER2C7 cells are seeded at 6000 cells/well, 100 μl/well in 2% FBS+2 mM glutamine DMEM, in a 96 well plate. Cells are incubated at 37° C., 5% CO2 overnight to allow for cell attachment to the plate;
(§6) 2. The TBST compound is added to the cells at day 2. The compounds are prepared in the appropriate growth medium (10% CS+2 mM) glutamine DMEM for NIH3T3C7 cells; 2% FBS+2 mM glutamine DMEM for HER2C7 cells) in a 96 well plate, and serially diluted. A total of 100 μl/well medium of the diluted compounds is added into the cells. The total volume of each well is 200 μl. Quadruplicates (wells) and 11 concentration points are applied to each compound tested.
(§7) 3. After the cells are treated with the compound for 4 days, the cells are washed with PBS and fixed with 200 μl/well ice-cold 10% TCA for one hour at 0-5° C. condition.
(§8) 4. Remove TCA and rinse wells […] with deionized water. Dry plates upside down with paper towels. […]
7. Read the plate at dual wavelengths at 570 nm and 630 nm on Dynatech Elisa plate reader. […]

The next experiment has as its system NIH3T3C7 cells. In words: 3T3/HER2 Cell Growth Assay, 3T3 control cells (beside 3T3 HER-2). As to conditions: 96 h; 10% FBS; column beside 3T3 HER-2; 4 days; read-out: Cell Growth Assays, 3T3 10% FBS. The protocol:
as §3, §4, §5, §6, §7, §8
7. Read the plate at dual wavelengths at 570 nm and 630 nm on Dynatech Elisa plate reader.

Experiment [2] deals with MCF7 cells overexpressing HER2 kinase (MCF7-HER2). Nature of the experiment: MCF-7/HER-2 SRB Growth Assay. As to conditions: Homo sapiens, MCF7, 96 h; 0.5% FBS; 4 days; read-out: Cell Growth Assays, MCF7 Her-2 0.5% FBS.
Another experiment deals with MCF7 cells. In words: MCF-7 SRB Growth Assay. The following applies: Homo sapiens, MCF7, 96 h; 10% FBS; 4 days; read-out: Cell Growth Assays, MCF7 10% FBS. The procedure: Assay 1: MCF-7 RB Growth Assay. MCF-7 cells are seeded at 2000 cells/well in a 96-well flat bottom plate in normal growth media, which was 10% FBS/RPMI supplemented with 2 mM Glutamine. The plate of cells is incubated for about 24 hours at 37° C. after which it receives an equal volume of compound dilution per well making the total volume per well 200 μl. The compound is prepared at 2 times the desired highest final concentration and serially diluted in the normal growth media in a 96-well round bottom plate and then transferred to plate of cells. DMSO serves as the vector control up to 0.2% as final concentration. The cells are then incubated at 37° C. in a humidified 5% CO2 incubator. Four days following dosing of compound, the media is 15 discarded and 200 μl/well of ice-cold 10% TCA (Trichloroacetic Acid) is added to fix cells. After 60 minutes at 4° C., the TCA is discarded and the plate is rinsed 5 times with water. The plate is then air-dried and 100 μl/well of 0.4% SRB (Sulforhodamine B from Sigma) 20 in 1% Acetic Acid is added to stain cells for 10 minutes at room temperature. The SRB is discarded and the plate is rinsed 5 times with 1% Acetic Acid. After the plate is completely dried, 100 μl/well of 10 mM Tris-base is added to solubilize the dye. After 5 to 10 minutes, the plate is read on a Dynatech ELISA Plate Reader at dual wavelengths at 570 nm and 630 nm. […]

Here are results for 1 molecule from patent US5763470A, “Benzopyran compounds and methods for their use” (Sugen Inc., priority 1995, dated 1998).

Consider `COc1cccc2c1OC(c1ccc(F)cc1)C([N+](=O)[O-])=C2` (stereo not drawn) [Compound A, 2-(4-Fluorophenyl)-8-methoxy-3-nitro-1,2-benzopyran], for which the IC50 in the experiment on NIH3T3/IGF-1R cells was found to be 2500 nM; in the experiment on NIH3T3 c7 cells, 5600 nM; in experiment [1], 1800 nM; in the experiment on NIH3T3C7 cells it was 70000 nM; in experiment [2], 800 nM; with MCF7 cells, 2000 nM.
